Laboratory results as given in patent publication US20120100361A1, “ANTISEPTIC COMPOSITION FOR ENGINEERING WOOD PRODUCTION, AND ENGINEERING WOOD” (SDS BIOTECH K.K., priority 2009, published 2012).

What was measured:
[1] = Test for miscibility with a phenol resin glue; format: physicochemical; set-up: key to Phenol resin status after 60 minutes: ∘: No change; x: Obvious increase in the viscosity was seen and it seems impossible to apply the composition onto the veneer sheet; conditions: for Phenol resin status after 60 minutes: 10% (w/w) solution added to phenol resin glue Deernol D-117 kneaded product, viscosity change visually observed for 60 minutes; for compatibility with phenol resin glue (in words): summary of Table 1
Procedure: The following compounds, which are known to have wood preservative activity, are dissolved in methyl ethylene triglycol to reach a concentration of 10% (w/w) to thereby obtain a solution of each of the compounds.
1000 g of phenol resin-based glue Deernol D-117 (manufactured by Oshika Corporation), 70 g of wheat flour and 100 g of calcium carbonate were mixed and well kneaded. Each of the solutions of Example 1 and Comparative Example 1 to 25 was added to 17 g of the kneaded product and mixed well together. The viscosity change of the glue was visually observed for 60 minutes. […] Although a number of documents listed as the prior art documents and the like teach that quaternary ammonium compounds can be applied to the glue line treatment, it is clear that those compounds have a problem for practical use (Comparative Examples 3 and 4). On the other hand, it was confirmed that the other compounds including that of Example has no problem from the viewpoint of compatibility.

Trametes versicolor [2] = test: Test for antiseptic effects of preservative plywood (JIS K1571:2004); format: cell-based; conditions: for average rate of decrease in weight: plywood, urea melamine resin, Trametes versicolor; for amount showing the antiseptic effect on Trametes versicolor: glue line method, summary of Tables 2 and 3
Procedure: (§1) 1000 g of urea melamine resin (PWP-60, manufactured by Oshika Corporation) was added to 180 g of wheat flour and fully kneaded to thereby obtain a kneaded product. 8 g of ammonium chloride was added as a hardening agent to the kneaded product, and a solution of each of the compounds of Example 1 and Comparative Example 1, 2 and 5 to 25 was further added thereto so that the final concentrations of the compound in the wood become 150, 100, 50 and 25 g/m^3 and kneaded. 18 g of the above kneaded product was applied onto each of the bonding plane of the three red lauan veneer sheets having an area of 30 x 30 cm and thickness of 0.85 mm/2.4 mm/0.85 mm. After bonding the three sheets to each other, the sheets were subjected to cold pressing at room temperature for 20 minutes and the thermal pressure of 120° C. (10 kgf/cm^2) was applied to the sheets for two minutes to obtain the target plywood. Each of the prepared plywood was processed into the size of 20×20×4.1 mm to serve as a test sample.
(§2) The samples of the plywood and LVL prepared in Preparation Examples 2 and 3 were evaluated by the test for antiseptic effects for the drug pressure treatment according to JIS K1571:2004. The weather resistance operation and the test method for the antiseptic effect were performed according to the above test method.

Fomitopsis palustris [3] = test: as above; format: cell-based; conditions: plywood, urea melamine resin, Fomitopsis palustris
Procedure: as §1, §2

Trametes versicolor [4] = test: Test for antiseptic effects of preservative LVL (JIS K1571:2004); format: cell-based; conditions: phenol resin
Procedure: (§3) 1000 g of the phenol resin-based glue Deernol D-117 (manufactured by Oshika Corporation), 70 g of wheat flour and 100 g of calcium carbonate were mixed and well kneaded. A solution of each of the compounds of Example 1 and Comparative Example 1, 2 and 5 to 25 was added to the kneaded product so that the final concentrations of the compound in the wood become 150, 100, 50 and 25 g/m^3 and further kneaded. 18 g of the above kneaded product was applied onto each of the surface of glue line of the three Radiata pine veneer sheets having an area of 30 x 30 cm and thickness of 3 mm. After bonding the three sheets to each other, the sheets were subjected to cold pressing at room temperature for 20 minutes and the thermal pressure of 140° C. (10 kgf/cm^2) was applied to the sheets for two minutes to obtain the target LVL. Each of the prepared LVL was processed into the size of 20×20×9 mm to serve as a test sample.
as §2

Fomitopsis palustris [5] = test: as above; format: cell-based; conditions: phenol resin
Procedure: as §3, §2

fungus cellar soil-bed [6] = test: Fungus cellar soil-bed test of preservative plywood (JIS K1571:2004); conditions: plywood, six months, 25° C., grade 0 sound condition to 5 out of shape due to the decay
Procedure: as §1
The preservative plywood was prepared in the same manner in Preparation Example 2. Each of the prepared plywood was processed into the size of 8.9 x 8.9×100 mm to serve as a test sample.
(§4) The samples of the plywood and LVL prepared in Preparation Examples 4 and 5 were evaluated by the fungus cellar soil-bed test according to JIS K1571:2004. The weather resistance operation and the test method for the antiseptic effect were performed according to the above test method. The test was carried out for six months setting the test temperature to 25° C. (because the grade average of the decay damage of the non-treated test samples exceeded 2.5 in six months). […] The effect in the glue line treatment was actually investigated with respect to a number of existing antiseptics, and it was confirmed that only epoxyconazole is suitable for the glue line treatment at a low concentration.

fungus cellar soil-bed [7] = test: Fungus cellar soil-bed test of preservative LVL (JIS K1571:2004); conditions: 25° C., grade 0 sound condition to 5 out of shape due to the decay
Procedure: as §3
The preservative LVL was prepared in the same manner in Preparation Example 3. Each of the prepared LVL was processed into the size of 9×9×100 mm to serve as a test sample.
as §4

OC(Cn1cncn1)(c1ccc(F)cc1)c1ccccc1F (stereo not drawn) [Comparative Example 11, flutriafol]
Phenol resin status after 60 minutes [1]: ∘

CCCCCCCCn1sccc1=O [Comparative Example 24, N-octylisothiazolin-3-one]
average rate of decrease in weight (Trametes versicolor [2]; treated amount 25 g/m^3): X (The average rate of decrease in weight was 3% or more.)
average rate of decrease in weight (Trametes versicolor [2]; treated amount 50 g/m^3): X (The average rate of decrease in weight was 3% or more.)
average rate of decrease in weight (Trametes versicolor [2]; treated amount 100 g/m^3): X (The average rate of decrease in weight was 3% or more.)
average rate of decrease in weight (Trametes versicolor [2]; treated amount 150 g/m^3): X (The average rate of decrease in weight was 3% or more.)
average rate of decrease in weight (Fomitopsis palustris [3]; treated amount 25 g/m^3): X (The average rate of decrease in weight was 3% or more.)
average rate of decrease in weight (Fomitopsis palustris [3]; treated amount 50 g/m^3): X (The average rate of decrease in weight was 3% or more.)
average rate of decrease in weight (Fomitopsis palustris [3]; treated amount 100 g/m^3): X (The average rate of decrease in weight was 3% or more.)
average rate of decrease in weight (Fomitopsis palustris [3]; treated amount 150 g/m^3): X (The average rate of decrease in weight was 3% or more.)
average rate of decrease in weight (Trametes versicolor [4]; treated amount 25 g/m^3): X (The average rate of decrease in weight was 3% or more.)
average rate of decrease in weight (Trametes versicolor [4]; treated amount 50 g/m^3): X (The average rate of decrease in weight was 3% or more.)
average rate of decrease in weight (Trametes versicolor [4]; treated amount 100 g/m^3): X (The average rate of decrease in weight was 3% or more.)
average rate of decrease in weight (Trametes versicolor [4]; treated amount 150 g/m^3): X (The average rate of decrease in weight was 3% or more.)
average rate of decrease in weight (Fomitopsis palustris [5]; treated amount 25 g/m^3): X (The average rate of decrease in weight was 3% or more.)
average rate of decrease in weight (Fomitopsis palustris [5]; treated amount 50 g/m^3): X (The average rate of decrease in weight was 3% or more.)
average rate of decrease in weight (Fomitopsis palustris [5]; treated amount 100 g/m^3): X (The average rate of decrease in weight was 3% or more.)
average rate of decrease in weight (Fomitopsis palustris [5]; treated amount 150 g/m^3): X (The average rate of decrease in weight was 3% or more.)
Phenol resin status after 60 minutes [1]: ∘
Grade average of the decay damage of five test samples (fungus cellar soil-bed [6]; treated amount 25 g/m^3): 2.8
Grade average of the decay damage of five test samples (fungus cellar soil-bed [6]; treated amount 50 g/m^3): 2.8
Grade average of the decay damage of five test samples (fungus cellar soil-bed [6]; treated amount 100 g/m^3): 2.8
Grade average of the decay damage of five test samples (fungus cellar soil-bed [6]; treated amount 150 g/m^3): 2.8
Grade average of the decay damage of five test samples (fungus cellar soil-bed [7]; treated amount 25 g/m^3, six months): 3.0
Grade average of the decay damage of five test samples (fungus cellar soil-bed [7]; treated amount 50 g/m^3, six months): 3.4
Grade average of the decay damage of five test samples (fungus cellar soil-bed [7]; treated amount 100 g/m^3, six months): 3.0
Grade average of the decay damage of five test samples (fungus cellar soil-bed [7]; treated amount 150 g/m^3, six months): 3.2

FC(F)C(F)(F)OCC(Cn1cncn1)c1ccc(Cl)cc1Cl (stereo not drawn) [Comparative Example 18, tetraconazole]
Phenol resin status after 60 minutes [1]: ∘

CC(C)(C)C(O)(CCc1ccc(Cl)cc1)Cn1cncn1 (stereo not drawn) [Comparative Example 6, tebuconazole]
Phenol resin status after 60 minutes [1]: ∘

CC(C)C1CCC(Cc2ccc(Cl)cc2)C1(O)Cn1cncn1 (stereo not drawn) [Comparative Example 13, ipconazole]
Phenol resin status after 60 minutes [1]: ∘

CC(C)(C)C(=O)C(Oc1ccc(Cl)cc1)n1cncn1 (stereo not drawn) [Comparative Example 19, triadimefon]
Phenol resin status after 60 minutes [1]: ∘

COC(=O)N(OC)c1ccccc1COc1ccn(-c2ccc(Cl)cc2)n1 [Comparative Example 22, pyraclostrobin]
Phenol resin status after 60 minutes [1]: ∘

CCCCC(C#N)(Cn1cncn1)c1ccc(Cl)cc1 (stereo not drawn) [Comparative Example 15, myclobutanil]
Phenol resin status after 60 minutes [1]: ∘

CCCCC(O)(Cn1cncn1)c1ccc(Cl)cc1Cl (stereo not drawn) [Comparative Example 1, hexaconazole]
amount showing the antiseptic effect on Trametes versicolor (Trametes versicolor [2]): ≥ 50 g/m^3
Phenol resin status after 60 minutes [1]: ∘

CC(C1CC1)C(O)(Cn1cncn1)c1ccc(Cl)cc1 (stereo not drawn) [Comparative Example 5, cyproconazole]
Phenol resin status after 60 minutes [1]: ∘

Clc1ccc(CSC(Cn2cncn2)=Nc2ccc(Cl)cc2Cl)cc1 [Comparative Example 12, imibenconazole]
Phenol resin status after 60 minutes [1]: ∘

C[Si](Cn1cncn1)(c1ccc(F)cc1)c1ccc(F)cc1 [Comparative Example 10, flusilazole]
Phenol resin status after 60 minutes [1]: ∘

N#CC(CCc1ccc(Cl)cc1)(Cn1cncn1)c1ccccc1 (stereo not drawn) [Comparative Example 9, fenbuconazole]
Phenol resin status after 60 minutes [1]: ∘

CC1(C)CCC(=Cc2ccc(Cl)cc2)C1(O)Cn1cncn1 (stereo not drawn) [Comparative Example 20, triticonazole]
Phenol resin status after 60 minutes [1]: ∘

CCCC(Cn1cncn1)c1ccc(Cl)cc1Cl (stereo not drawn) [Comparative Example 16, penconazole]
Phenol resin status after 60 minutes [1]: ∘

CC1(C)CCC(Cc2ccc(Cl)cc2)C1(O)Cn1cncn1 (stereo not drawn) [Comparative Example 14, metconazole]
Phenol resin status after 60 minutes [1]: ∘

Clc1ccc(C2(Cn3cncn3)OCCO2)c(Cl)c1 [Comparative Example 7, azaconazole]
Phenol resin status after 60 minutes [1]: ∘

N#Cc1c(Cl)c(Cl)c(Cl)c(C#N)c1Cl [Comparative Example 25, chlorothalonil]
Phenol resin status after 60 minutes [1]: ∘

CCCC1COC(Cn2cncn2)(c2ccc(Cl)cc2Cl)O1 (stereo not drawn) [Comparative Example 17, propiconazole]
Phenol resin status after 60 minutes [1]: ∘

C[Si](C)(C)CC(O)(Cn1cncn1)c1ccc(F)cc1F (stereo not drawn) [Comparative Example 2, 2-(2,4-difluorophenyl)-1-(1H-1,2,4-triazole-1-yl)-3-(trimethylsilyl)propane-2-ol]
amount showing the antiseptic effect on Trametes versicolor (Trametes versicolor [2]): ≥ 100 g/m^3
Phenol resin status after 60 minutes [1]: ∘

CCCCCCCCCC[N+](C)(C)CCCCCCCCCC.[Cl-] [Comparative Example 4, didecyldimethylammonium chloride]
Phenol resin status after 60 minutes [1]: x
compatibility with phenol resin glue (in words) [1]: harden the glue

C[Si](C)(C)CC(O)(Cn1cncn1)c1ccc(F)cc1 (stereo not drawn) [Comparative Example 8, simeconazole]
Phenol resin status after 60 minutes [1]: ∘

benzalkonium chloride [Comparative Example 3]
Phenol resin status after 60 minutes [1]: x
compatibility with phenol resin glue (in words) [1]: harden the glue
